Experiments:
Test in all cases: cells
NCI-H2342 = format: functional, cell-based; conditions: Homo sapiens;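 note: growth inhibition of the cancer cell line, determined with a cell viability assay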
Description: SANGER: Inhibition of human NCI-H2342 cell growth in a cell viability assay.

NB7 = format: functional, cell-based; conditions: Homo sapiens;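 note: growth inhibition of NB7 cells, read out with a cell viability assay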
Description: SANGER: Inhibition of human NB7 cell growth in a cell viability assay.

NCI-H1770 = format: functional, cell-based; conditions: Homo sapiens;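 note: growth inhibition of NCI-H1770 cells determined with a viability readout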
Description: SANGER: Inhibition of human NCI-H1770 cell growth in a cell viability assay.

MHH-PREB-1 = format: functional, cell-based; conditions: Homo sapiens;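 note: cell viability assay measuring inhibition of proliferation of human MHH-PREB-1 cells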
Description: SANGER: Inhibition of human MHH-PREB-1 cell growth in a cell viability assay.

RVH-421 = format: functional, cell-based, Homo sapiens; conditions: Homo sapiens, RVH-421
Description: SANGER: Inhibition of human RVH-421 cell growth in a cell viability assay.

TK-10 = format: functional, cell-based, Homo sapiens; conditions: Homo sapiens, TK-10;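 note: growth inhibition of TK-10 cells, read out in a cell viability assay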
Description: SANGER: Inhibition of human TK10 cell growth in a cell viability assay.

RPMI-2650 = format: functional, cell-based, Homo sapiens; conditions: Homo sapiens, RPMI-2650
Description: SANGER: Inhibition of human RPMI-2650 cell growth in a cell viability assay.

LS-411N = format: functional, cell-based, Homo sapiens; conditions: Homo sapiens, LS-411N
L-428 = format: functional, cell-based; conditions: Homo sapiens
Description: SANGER: Inhibition of human L-428 cell growth in a cell viability assay.

DJM-1 = format: functional, cell-based, Homo sapiens; conditions: Homo sapiens, DJM-1;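 note: growth inhibition of human DJM-1 cells, read out by a cell viability assay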
Description: SANGER: Inhibition of human DJM-1 cell growth in a cell viability assay.

ATN-1 = format: functional, cell-based; conditions: Homo sapiens;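 note: growth inhibition of human ATN-1 cells, read out with a cell viability assay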
Description: SANGER: Inhibition of human ATN-1 cell growth in a cell viability assay.

UACC-257 = format: functional, cell-based, Homo sapiens; conditions: Homo sapiens, UACC-257
Description: SANGER: Inhibition of human UACC-257 cell growth in a cell viability assay.

COLO-824 = format: functional, cell-based, Homo sapiens; conditions: Homo sapiens, COLO-824
Description: SANGER: Inhibition of human COLO-824 cell growth in a cell viability assay.

DB = format: functional, cell-based; conditions: Homo sapiens
Description: SANGER: Inhibition of human DB cell growth in a cell viability assay.

TE-5 = format: functional, cell-based, Homo sapiens; conditions: Homo sapiens, TE-5;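 note: inhibition of cell growth, read out by a cell viability assay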
Description: SANGER: Inhibition of human TE-5 cell growth in a cell viability assay.

UACC-62 = format: functional, cell-based, Homo sapiens; conditions: Homo sapiens, UACC-62;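 note: growth inhibition of human UACC-62 cells, read out by a cell viability assay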
Description: SANGER: Inhibition of human UACC-62 cell growth in a cell viability assay.

K562 = format: functional, cell-based; conditions: Homo sapiens
Description: SANGER: Inhibition of human K-562 cell growth in a cell viability assay.

VMRC-RCZ = format: functional, cell-based; conditions: Homo sapiens;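 note: growth inhibition measured with a cell viability assay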
Description: SANGER: Inhibition of human VMRC-RCZ cell growth in a cell viability assay.

OCI-AML2 = format: functional, cell-based; conditions: Homo sapiens;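 note: growth inhibition of OCI-AML2 cells, read out with a cell viability assay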
Description: SANGER: Inhibition of human OCI-AML2 cell growth in a cell viability assay.

ES5 = format: functional, cell-based, Homo sapiens; conditions: Homo sapiens, ES5;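 note: growth inhibition of human ES5 cells, read out by a cell viability assay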
Description: SANGER: Inhibition of human ES5 cell growth in a cell viability assay.

COLO-800 = format: functional, cell-based, Homo sapiens; conditions: Homo sapiens, COLO-800;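 note: growth inhibition of COLO-800 cells, read out with a cell viability assay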
Description: SANGER: Inhibition of human COLO-800 cell growth in a cell viability assay.

NY = format: functional, cell-based, Homo sapiens; conditions: Homo sapiens, NY
Description: SANGER: Inhibition of human NY cell growth in a cell viability assay.

DU-145 = format: functional, cell-based, Homo sapiens; conditions: Homo sapiens, DU-145
Description: SANGER: Inhibition of human DU-145 cell growth in a cell viability assay.

UMUC3 = format: functional, cell-based, Homo sapiens; conditions: Homo sapiens, UMUC3;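 note: growth inhibition of human UM-UC-3 cells, read out with a cell viability assay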
Description: SANGER: Inhibition of human UM-UC-3 cell growth in a cell viability assay.

KYSE-450 = format: functional, cell-based; conditions: Homo sapiens;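 note: cell growth inhibition measured by a viability assay in human KYSE-450 cells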
Description: SANGER: Inhibition of human KYSE-450 cell growth in a cell viability assay.

A 172 = format: functional, cell-based, Homo sapiens; conditions: Homo sapiens, A 172;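 note: growth inhibition of A172 cells, measured with a cell viability readout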
Description: SANGER: Inhibition of human A172 cell growth in a cell viability assay.

MZ7-mel = format: functional, cell-based, Homo sapiens; conditions: Homo sapiens, MZ7-mel;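 note: growth inhibition of human MZ7-mel cells, measured by a cell viability assay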
Description: SANGER: Inhibition of human MZ7-mel cell growth in a cell viability assay.

EFO-27 = format: functional, cell-based, Homo sapiens; conditions: Homo sapiens, EFO-27;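 note: growth inhibition of EFO-27 cells, read out with a cell viability assay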
Description: SANGER: Inhibition of human EFO-27 cell growth in a cell viability assay.

NB17 = format: functional, cell-based; conditions: Homo sapiens;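 note: growth inhibition of NB17 cells, read out with a cell viability assay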
Description: SANGER: Inhibition of human NB17 cell growth in a cell viability assay.

CAL-72 = format: functional, cell-based, Homo sapiens; conditions: Homo sapiens, CAL-72;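 note: cell viability assay measuring inhibition of proliferation in the CAL-72 cell line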
Description: SANGER: Inhibition of human CAL-72 cell growth in a cell viability assay.

HuO-3N1 = format: functional, cell-based, Homo sapiens; conditions: Homo sapiens, HuO-3N1;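 note: cell viability readout used to measure how strongly compounds suppress proliferation of human HuO-3N1 cells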
Description: SANGER: Inhibition of human HuO-3N1 cell growth in a cell viability assay.

LS-513 = format: functional, cell-based, Homo sapiens; conditions: Homo sapiens, LS-513
Description: SANGER: Inhibition of human LS-513 cell growth in a cell viability assay.

SAOS-2 = format: functional, cell-based, Homo sapiens; conditions: Homo sapiens, SAOS-2;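 note: growth inhibition of human Saos-2 cells determined by a cell viability assay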
Description: SANGER: Inhibition of human Saos-2 cell growth in a cell viability assay.

MEL-HO = format: functional, cell-based, Homo sapiens; conditions: Homo sapiens, MEL-HO
Description: SANGER: Inhibition of human MEL-HO cell growth in a cell viability assay.

NCI-H1993 = format: functional, cell-based, Homo sapiens; conditions: Homo sapiens, NCI-H1993;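 note: growth inhibition of the cancer cell line, assessed with a cell viability assay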
Description: SANGER: Inhibition of human NCI-H1993 cell growth in a cell viability assay.

ASPC1 = format: functional, cell-based, Homo sapiens; conditions: Homo sapiens, ASPC1;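 note: growth inhibition of AsPC-1 cells, read out with a cell viability assay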
Description: SANGER: Inhibition of human AsPC-1 cell growth in a cell viability assay.

HH = format: functional, cell-based; conditions: Homo sapiens
Description: SANGER: Inhibition of human HH cell growth in a cell viability assay.

TE-9 = format: functional, cell-based, Homo sapiens; conditions: Homo sapiens, TE-9;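 note: cell growth inhibition, measured with a cell viability readout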
Description: SANGER: Inhibition of human TE-9 cell growth in a cell viability assay.

SNU-387 = format: functional, cell-based, Homo sapiens; conditions: Homo sapiens, SNU-387
Description: SANGER: Inhibition of human SNU-387 cell growth in a cell viability assay.

JVM-3 = format: functional, cell-based; conditions: Homo sapiens;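 note: growth inhibition of human JVM-3 cells, read out with a cell viability assay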
Description: SANGER: Inhibition of human JVM-3 cell growth in a cell viability assay.

KY821 = format: functional, cell-based; conditions: Homo sapiens;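 note: growth inhibition of human KY821 cells, read out by a cell viability assay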
Description: SANGER: Inhibition of human KY821 cell growth in a cell viability assay.

FaDu = format: functional, cell-based, Homo sapiens; conditions: Homo sapiens, FaDu;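 note: cell viability readout of growth inhibition in FaDu cells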
Description: SANGER: Inhibition of human FADU cell growth in a cell viability assay.

LNCaP-Clone-FGC = format: functional, cell-based, Homo sapiens; conditions: Homo sapiens, LNCaP-Clone-FGC
Description: SANGER: Inhibition of human LNCaP-Clone-FGC cell growth in a cell viability assay.

HDLM-2 = format: functional, cell-based; conditions: Homo sapiens;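 note: cell viability assay measuring suppression of HDLM-2 proliferation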
Description: SANGER: Inhibition of human HDLM-2 cell growth in a cell viability assay.

NCI-H810 = format: functional, cell-based, Homo sapiens; conditions: Homo sapiens, NCI-H810;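 note: IC50 reflects inhibition of cancer cell line growth, read out with a cell viability assay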
Description: SANGER: Inhibition of human NCI-H810 cell growth in a cell viability assay.

NOMO-1 = format: functional, cell-based; conditions: Homo sapiens;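 note: growth inhibition of human NOMO-1 cells measured by a cell viability assay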
Description: SANGER: Inhibition of human NOMO-1 cell growth in a cell viability assay.

PSN1 = format: functional, cell-based, Homo sapiens; conditions: Homo sapiens, PSN1;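 note: suppression of growth of human PSN1 cells, read out by a cell viability assay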
Description: SANGER: Inhibition of human PSN1 cell growth in a cell viability assay.

OVCAR-8 = format: functional, cell-based, Homo sapiens; conditions: Homo sapiens, OVCAR-8;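 note: growth inhibition of human OVCAR-8 cells, read out by a cell viability assay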
Description: SANGER: Inhibition of human OVCAR-8 cell growth in a cell viability assay.

NCI-H1648 = format: functional, cell-based, Homo sapiens; conditions: Homo sapiens, NCI-H1648;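 note: cell viability assay measuring inhibition of NCI-H1648 cell growth, from the Sanger screening data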
Description: SANGER: Inhibition of human NCI-H1648 cell growth in a cell viability assay.

BB30-HNC = format: functional, cell-based, Homo sapiens; conditions: Homo sapiens, BB30-HNC;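 note: growth inhibition of the cultured cell line, read out by a cell viability assay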
Description: SANGER: Inhibition of human BB30-HNC cell growth in a cell viability assay.

EW-11 = format: functional, cell-based, Homo sapiens; conditions: Homo sapiens, EW-11;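 note: growth inhibition of human EW-11 cells, measured with a cell viability assay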
Description: SANGER: Inhibition of human EW-11 cell growth in a cell viability assay.

NCI-H1651 = format: functional, cell-based, Homo sapiens; conditions: Homo sapiens, NCI-H1651;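 note: Read-out is a cell viability assay, with IC50 expressing inhibition of NCI-H1651 cell growth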
Description: SANGER: Inhibition of human NCI-H1651 cell growth in a cell viability assay.

HCC1187 = format: functional, cell-based, Homo sapiens; conditions: Homo sapiens, HCC1187;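 note: growth inhibition of HCC1187 cells, read out with a cell viability assay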
Description: SANGER: Inhibition of human HCC1187 cell growth in a cell viability assay.

Compound: C=CCNC1=C2C[C@@H](C)C[C@H](OC)[C@H](O)[C@@H](C)/C=C(\C)[C@H](OC(N)=O)[C@@H](OC)/C=C\C=C(/C)C(=O)NC(=CC1=O)C2=O [TANESPIMYCIN]
- IC50 (NCI-H2342): > 1000 nM
- IC50 (NB7): > 1000 nM
- IC50 (NCI-H1770): > 1000 nM
- IC50 (MHH-PREB-1): > 1000 nM
- IC50 (RVH-421): 191 nM
- IC50 (TK-10): 231 nM
- IC50 (RPMI-2650): > 1000 nM
- IC50 (LS-411N): 465 nM
- IC50 (L-428): > 1000 nM
- IC50 (DJM-1): > 1000 nM
- IC50 (ATN-1): > 1000 nM
- IC50 (UACC-257): 822 nM
- IC50 (COLO-824): 173 nM
- IC50 (DB): > 1000 nM
- IC50 (TE-5): > 1000 nM
- IC50 (UACC-62): 322 nM
- IC50 (K562): > 1000 nM
- IC50 (VMRC-RCZ): 138 nM
- IC50 (OCI-AML2): 654 nM
- IC50 (ES5): > 1000 nM
- IC50 (COLO-800): 258 nM
- IC50 (NY): > 1000 nM
- IC50 (DU-145): > 1000 nM
- IC50 (UMUC3): 455 nM
- IC50 (KYSE-450): 986 nM
- IC50 (A 172): 210 nM
- IC50 (MZ7-mel): 176 nM
- IC50 (EFO-27): 100 nM
- IC50 (NB17): 880 nM
- IC50 (CAL-72): > 1000 nM
- IC50 (HuO-3N1): 52.4 nM
- IC50 (LS-513): 240 nM
- IC50 (SAOS-2): 879 nM
- IC50 (MEL-HO): 72.6 nM
- IC50 (NCI-H1993): > 1000 nM
- IC50 (ASPC1): 152 nM
- IC50 (HH): > 1000 nM
- IC50 (TE-9): 218 nM
- IC50 (SNU-387): > 1000 nM
- IC50 (JVM-3): 638 nM
- IC50 (KY821): 299 nM
- IC50 (FaDu): 2.09 nM
- IC50 (LNCaP-Clone-FGC): 800 nM
- IC50 (HDLM-2): > 1000 nM
- IC50 (NCI-H810): > 1000 nM
- IC50 (NOMO-1): > 1000 nM
- IC50 (PSN1): 46 nM
- IC50 (OVCAR-8): 86.2 nM
- IC50 (NCI-H1648): 152 nM
- IC50 (BB30-HNC): 173 nM
- IC50 (EW-11): > 1000 nM
- IC50 (NCI-H1651): 700 nM
- IC50 (HCC1187): > 1000 nM

Reference: ChEMBL document CHEMBL1201861, “Genomics of Drug Sensitity in Cancer screening data, Wellcome Trust Sanger Institute”
